# Data as given in ChEMBL document CHEMBL1201862, “PubChem BioAssay data set” (2004).
#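 Test compounds were applied to cells in 96-well plates for 48 hours at 5 doses. GI50: concentration for 50% inhibition of growth.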 The source made the active and inactive calls. Rule as the data show it: active = GI50 up to about 1.1 µM and inactive = higher.
# Key:
# Experiment in all cases: NCI tumour cell line growth inhibition, 48 h
# Malme-3M = test system: Malme-3M
# IGROV-1 = test system: IGROV-1
# A549 = test system: A549
# OVCAR-8 = test system: OVCAR-8
# HT-29 = test system: HT-29
# UACC-257 = test system: UACC-257
# U-251 = test system: U-251
# UACC-62 = test system: UACC-62
# 786-0 = test system: 786-0
# NCI-H522 = test system: NCI-H522
# SK-MEL-28 = test system: SK-MEL-28
# SN12C = test system: SN12C
# NCI-H23 = test system: NCI-H23
# XF498 = test system: XF498
# HCC 2998 = test system: HCC 2998
# SW-620 = test system: SW-620
# CCRF-CEM = test system: CCRF-CEM
# M19-MEL = test system: M19-MEL
# NCI-H226 = test system: NCI-H226
# OVCAR-5 = test system: OVCAR-5
# CAKI-1 = test system: CAKI-1
# LXFL 529 = test system: LXFL 529
# TK-10 = test system: TK-10
# NCI-H460 = test system: NCI-H460
# SNB-75 = test system: SNB-75
# HCT-15 = test system: HCT-15
# KM-20L2 = test system: KM-20L2
# SF-268 = test system: SF-268
# M14 = test system: M14
# K562 = test system: K562
# SK-MEL-5 = test system: SK-MEL-5
# HOP-18 = test system: HOP-18
# HOP-62 = test system: HOP-62
# SF-295 = test system: SF-295
# A498 = test system: A498
# DMS-273 = test system: DMS-273
# OVCAR-3 = test system: OVCAR-3
# LOX IMVI = test system: LOX IMVI
# SNB-19 = test system: SNB-19
# COLO 205 = test system: COLO 205
# EKVX = test system: EKVX
# ACHN = test system: ACHN
# SNB-78 = test system: SNB-78
# HCT-116 = test system: HCT-116
# DLD-1 = test system: DLD-1
# KM12 = test system: KM12
# RXF 631 = test system: RXF 631
# SK-OV-3 = test system: SK-OV-3
# OVCAR-4 = test system: OVCAR-4
# SK-MEL-2 = test system: SK-MEL-2
# MOLT-4 = test system: MOLT-4
# SF-539 = test system: SF-539
# UO-31 = test system: UO-31
# RPMI-8226 = test system: RPMI-8226
# HL-60 = test system: HL-60
# SR = test system: SR
# DMS-114 = test system: DMS-114
# HOP-92 = test system: HOP-92
# RXF 393 = test system: RXF 393
compound,measurement,setting,value
CC(C)OC(=O)C1=C(O)c2ccccc2S(=O)(=O)N1,GI50,Malme-3M,> 100 µM (inactive)
same,GI50,IGROV-1,> 100 µM (inactive)
same,GI50,A549,> 100 µM (inactive)
same,GI50,OVCAR-8,> 100 µM (inactive)
same,GI50,HT-29,> 100 µM (inactive)
same,GI50,UACC-257,> 100 µM (inactive)
same,GI50,U-251,> 100 µM (inactive)
same,GI50,UACC-62,> 100 µM (inactive)
same,GI50,786-0,> 100 µM (inactive)
same,GI50,NCI-H522,> 100 µM (inactive)
same,GI50,SK-MEL-28,> 100 µM (inactive)
same,GI50,SN12C,> 100 µM (inactive)
same,GI50,NCI-H23,> 100 µM (inactive)
same,GI50,XF498,> 100 µM (inactive)
same,GI50,HCC 2998,> 100 µM (inactive)
same,GI50,SW-620,> 100 µM (inactive)
same,GI50,CCRF-CEM,> 100 µM (inactive)
same,GI50,M19-MEL,> 100 µM (inactive)
same,GI50,NCI-H226,> 100 µM (inactive)
same,GI50,OVCAR-5,> 100 µM (inactive)
same,GI50,CAKI-1,> 100 µM (inactive)
same,GI50,LXFL 529,> 100 µM (inactive)
same,GI50,TK-10,> 100 µM (inactive)
same,GI50,NCI-H460,> 100 µM (inactive)
same,GI50,SNB-75,> 100 µM (inactive)
same,GI50,HCT-15,> 100 µM
same,GI50,KM-20L2,> 100 µM (inactive)
same,GI50,SF-268,> 100 µM (inactive)
same,GI50,M14,> 100 µM (inactive)
same,GI50,K562,> 100 µM (inactive)
same,GI50,SK-MEL-5,> 100 µM (inactive)
same,GI50,HOP-18,> 100 µM (inactive)
same,GI50,HOP-62,> 100 µM (inactive)
same,GI50,SF-295,> 100 µM (inactive)
same,GI50,A498,> 100 µM (inactive)
same,GI50,DMS-273,> 100 µM (inactive)
same,GI50,OVCAR-3,> 100 µM (inactive)
same,GI50,LOX IMVI,> 100 µM (inactive)
same,GI50,SNB-19,> 100 µM (inactive)
same,GI50,COLO 205,> 100 µM (inactive)
same,GI50,EKVX,> 100 µM (inactive)
same,GI50,ACHN,> 100 µM (inactive)
same,GI50,SNB-78,> 100 µM (inactive)
same,GI50,HCT-116,> 100 µM (inactive)
same,GI50,DLD-1,> 100 µM (inactive)
same,GI50,KM12,> 100 µM (inactive)
same,GI50,RXF 631,> 100 µM (inactive)
same,GI50,SK-OV-3,> 100 µM (inactive)
same,GI50,OVCAR-4,> 100 µM (inactive)
same,GI50,SK-MEL-2,> 100 µM (inactive)
same,GI50,MOLT-4,> 100 µM (inactive)
same,GI50,SF-539,> 100 µM (inactive)
COc1cc([C@@H]2c3cc4c(cc3[C@@H](NCc3ccccc3)C3COC(=O)[C@@H]32)OCO4)cc(OC)c1O (stereo not given in full),GI50,Malme-3M,11.2 µM (inactive)
same,GI50,IGROV-1,21.3 µM (inactive)
same,GI50,A549,1.41 µM (inactive)
same,GI50,OVCAR-8,10.8 µM (inactive)
same,GI50,HT-29,16.4 µM (inactive)
same,GI50,UACC-257,27.1 µM (inactive)
same,GI50,U-251,3.71 µM (inactive)
same,GI50,UACC-62,3.83 µM (inactive)
same,GI50,786-0,3.47 µM (inactive)
same,GI50,SK-MEL-28,25 µM (inactive)
same,GI50,SN12C,3.28 µM (inactive)
same,GI50,NCI-H23,3.64 µM (inactive)
same,GI50,UO-31,7.08 µM (inactive)
same,GI50,XF498,13.2 µM (inactive)
same,GI50,HCC 2998,17.1 µM (inactive)
same,GI50,SW-620,8.57 µM (inactive)
same,GI50,CCRF-CEM,3.13 µM (inactive)
same,GI50,M19-MEL,14.1 µM (inactive)
same,GI50,NCI-H226,3.46 µM (inactive)
same,GI50,OVCAR-5,29 µM (inactive)
same,GI50,CAKI-1,2.24 µM (inactive)
same,GI50,RPMI-8226,3.8 µM (inactive)
same,GI50,HL-60,2.74 µM (inactive)
same,GI50,LXFL 529,19.3 µM (inactive)
same,GI50,TK-10,26 µM (inactive)
same,GI50,NCI-H460,0.547 µM (active)
same,GI50,SNB-75,6.21 µM (inactive)
same,GI50,HCT-15,6.34 µM
same,GI50,KM-20L2,17.9 µM (inactive)
same,GI50,SF-268,7.19 µM (inactive)
same,GI50,M14,6.65 µM (inactive)
same,GI50,K562,16.6 µM (inactive)
same,GI50,SR,0.345 µM (active)
same,GI50,SK-MEL-5,11.8 µM (inactive)
same,GI50,HOP-62,4 µM (inactive)
same,GI50,SF-295,4.03 µM (inactive)
same,GI50,A498,6.05 µM (inactive)
same,GI50,DMS-114,8.41 µM (inactive)
same,GI50,DMS-273,1.68 µM (inactive)
same,GI50,OVCAR-3,17.8 µM (inactive)
same,GI50,LOX IMVI,5.25 µM (inactive)
same,GI50,SNB-19,4.86 µM (inactive)
same,GI50,COLO 205,27.2 µM (inactive)
same,GI50,EKVX,13.1 µM (inactive)
same,GI50,ACHN,1.17 µM (inactive)
same,GI50,SNB-78,34.9 µM (inactive)
same,GI50,HOP-92,5.83 µM (inactive)
same,GI50,HCT-116,14 µM (inactive)
same,GI50,DLD-1,21.6 µM (inactive)
same,GI50,KM12,12.8 µM (inactive)
same,GI50,RXF 631,3.44 µM (inactive)
same,GI50,RXF 393,20.8 µM (inactive)
same,GI50,SK-OV-3,6.52 µM (inactive)
same,GI50,OVCAR-4,38.2 µM (inactive)
same,GI50,SK-MEL-2,23.4 µM (inactive)
same,GI50,MOLT-4,0.891 µM (active)
same,GI50,SF-539,6 µM (inactive)
O=[N+]([O-])c1ccc(Sc2c3ccccc3nc3cc(Cl)ccc23)cc1,GI50,Malme-3M,> 10 µM (inactive)
same,GI50,IGROV-1,> 10 µM (inactive)
same,GI50,OVCAR-8,> 10 µM (inactive)
same,GI50,HT-29,> 100 µM (inactive)
same,GI50,UACC-257,> 10 µM (inactive)
same,GI50,U-251,> 10 µM (inactive)
same,GI50,UACC-62,> 10 µM (inactive)
same,GI50,786-0,> 10 µM (inactive)
same,GI50,NCI-H522,> 10 µM (inactive)
same,GI50,SK-MEL-28,> 10 µM (inactive)
same,GI50,SN12C,> 10 µM (inactive)
same,GI50,UO-31,> 10 µM (inactive)
same,GI50,XF498,32.7 µM (inactive)
same,GI50,HCC 2998,> 10 µM (inactive)
same,GI50,SW-620,> 10 µM (inactive)
same,GI50,CCRF-CEM,32.9 µM (inactive)
same,GI50,M19-MEL,> 10 µM (inactive)
same,GI50,NCI-H226,> 10 µM (inactive)
same,GI50,OVCAR-5,> 10 µM (inactive)
same,GI50,CAKI-1,> 10 µM (inactive)
same,GI50,RPMI-8226,> 100 µM (inactive)
same,GI50,HL-60,40.9 µM (inactive)
same,GI50,LXFL 529,> 10 µM (inactive)
same,GI50,TK-10,> 10 µM (inactive)
same,GI50,NCI-H460,> 10 µM (inactive)
same,GI50,SNB-75,27.9 µM (inactive)
same,GI50,HCT-15,> 10 µM
same,GI50,KM-20L2,> 10 µM (inactive)
same,GI50,SF-268,> 10 µM (inactive)
same,GI50,M14,> 10 µM (inactive)
same,GI50,K562,> 10 µM (inactive)
same,GI50,SR,25.7 µM (inactive)
same,GI50,SK-MEL-5,> 10 µM (inactive)
same,GI50,HOP-18,> 10 µM (inactive)
same,GI50,HOP-62,> 10 µM (inactive)
same,GI50,SF-295,> 10 µM (inactive)
same,GI50,A498,> 10 µM (inactive)
same,GI50,DMS-114,> 10 µM (inactive)
same,GI50,OVCAR-3,> 10 µM (inactive)
same,GI50,LOX IMVI,> 10 µM (inactive)
same,GI50,SNB-19,> 10 µM (inactive)
same,GI50,COLO 205,> 10 µM (inactive)
same,GI50,EKVX,> 10 µM (inactive)
same,GI50,ACHN,> 10 µM (inactive)
same,GI50,SNB-78,> 10 µM (inactive)
same,GI50,HOP-92,65.2 µM (inactive)
same,GI50,HCT-116,> 10 µM (inactive)
same,GI50,DLD-1,> 10 µM (inactive)
same,GI50,KM12,> 10 µM (inactive)
same,GI50,RXF 631,> 10 µM (inactive)
same,GI50,RXF 393,37.5 µM (inactive)
same,GI50,SK-OV-3,> 10 µM (inactive)
same,GI50,OVCAR-4,> 10 µM (inactive)
same,GI50,SK-MEL-2,> 10 µM (inactive)
same,GI50,MOLT-4,34.4 µM (inactive)
same,GI50,SF-539,> 10 µM (inactive)
